Laboratory results as given in patent US6605595B1, “Avermectin derivatives” (The Kitasato Institute, priority 1999, dated 2003).

What was measured:
Type in all cases: in vivo
Caenorhabditis elegans = assay: Antiparasitic activity against Caenorhabditis elegans, 96 well microplate (MIC); conditions: 20° C., observed after 24 and 48 hours
Text: (§1) As model insects for simple determination of antiparasitic and insecticidal activities, those insects are desired which can be easily obtained and bred in laboratories, and have no pathogenicity to a human. Caenorhabditis elegans, an unparasitic eelworm widely used in experiments of genetics, was used as a typical steam worm, and Artemia salina used as feed for tropical fish and named Brine shrimp, was used instead of insects.
Escherichia. coli for the feed of Caenorhabditis elegans (mutant having uracil requirement) was inoculated in a seed medium for E. coli to which a small amount of uracil was added, and cultured with shaking at 27° C. for 1 day. A petri dish of 6 cm diameter was filled with 10 ml of an agar medium for eelworm proliferation, and the medium was solidified. Then 0.5 ml of the culture of E. coli was spread over the medium in the dish, and the dish was incubated at 37° C. to proliferate E. coli. A piece of the agar was collected with a platinum loop from a petri dish in which Caenorhabditis elegans successfully proliferated, and inoculated in petri dishes in which E. coli was proliferated. The petri dishes were incubated at 20° C. to proliferate Caenorhabditis elegans. Since the life of eelworm is about 2 weeks, subculture was carried out every once a week. The eelworms grown with spread on the surface of the petri dish after 3 to 5 days from subculture were used for the experiments.
The agar medium for eelworm proliferation was prepared by mixing the solutions in the following proportion: Solution A: 100 ml, Solution B: 0.1 ml, Solution C: 0.05 ml, Solution D: 0.1 ml and Solution E: 2.5 ml (without pH adjustment), and dispensing each 10 ml portion into petri dishes of 60×15 mm.
In distilled water, 2.0% of bact-trypton (DIFCO Co.), 0.55% of sodium chloride and 0.001% of uracil (SIGMA Co., pH 7.4) were dissolved, and the solution was sterilized in an autoclave at 121° C. for 20 minutes.
(§2) Each well of a 96 well microplate was filled with the solution of the test compound (methanol as a solvent), and the solvent was removed using a vacuum pump, then 250 μl of the assay medium was added to each wells (the assay medium was prepared by dissolving 7.5 mM sodium hydrogencarbonate, 7.5 mM potassium chloride, 7.5 mM calcium chloride dihydrate and 7.5 mM magnesium sulfate heptahydrate in distilled water and adding 0.01% of lecithin thereto), and then the microplate was shaken using a microplate mixer for 15 minutes. To each well, a few individuals of Caenorhabditis elegans were added by softly rubbing the surface of the agar using a toothpick, or a few individuals of Artemia salina were added together with 50 μl of the buffer. The microplate was incubated at 20° C., and then the insects were observed after 24 and 48 hours under a microscope (magnification of 40×). The results were compared to those obtained without addition of the test compound, and evaluated by 4 grades.
(§3) The evaluation results were shown by indications of 4 grades from 0 to 3.
(§4) 1: A little week movements
(§5) Of the 4 grades, Indications 3 and 2 were judged as effective, and Indications 1 and 0 as ineffective. In Table 9, the values for each compound are minimum inhibitory concentrations (MIC) which were required to give Indication 2 (or 3) for Caenorhabditis elegans or Artemia salina. In Table 9, Caenorhabditis elegans and Artemia salina are abbreviated as C.E. and A.S., respectively.

Artemia salina = assay: Insecticidal model activity against Artemia salina (brine shrimp), 96 well microplate (MIC); conditions: 20° C., observed after 24 and 48 hours
Text: as §1
To a buffer for Artemia salina (obtained by dissolving 0.24% of Tris, 2.57% of sodium chloride, 0.47% of magnesium chloride, 0.07% of potassium chloride, 0.02% of sodium carbonate, 0.64% of magnesium sulfate and 0.11% of calcium chloride in distilled water and adjusting the pH to 7.1 with hydrochloric acid), dried eggs of Artemia salina [Tetra Brine Shrimp Eggs, Warner Lambert Co.] were added. The noprius larvae 1 or 2 days after hatching were used for the experiments.
as §2, §3, §4, §5

[1] = tested on: Adult Ctenocephalides felis; assay: Test on cat fleas / oral absorption; conditions: after 24 hours
Protocol: Test on cat fleas/oral absorption
Test animals: Adult Ctenocephalides felis
Solvent: Dimethylsulfoxide (DMSO)
20 μl of this formulation are added to 4 ml of citrated cow's blood and stirred.
20 starved adult fleas (of “Georgi” species of Ctenocephalides felis) are introduced into a chamber (of a diameter of 5 cm) which is sealed with gauze at the top and bottom. A metal cylinder, whose base is sealed with parafilm, is placed on the chamber. […] Whereas the blood is heated to 37° C. a temperature of 25° C. is adjusted in the region of the flea chambers. Controls are mixed with the same volume of DMSO without the addition of any of the compounds. The test are repeated three times.
After 24 hours the mortality is determined in %.

[2] = 100 ppm in citrated cow's blood

Compound | C.E. minimum inhibitory concentration (MIC) required to give Indication 2 (or 3) (Caenorhabditis elegans) | A.S. minimum inhibitory concentration (MIC) required to give Indication 2 (or 3) (Artemia salina) | mortality of fleas ([1]; 10 ppm in citrated cow's blood) | mortality of fleas [1, 2]
CCC(C)C1OC2(C=CC1C)CC1CC(CC=C(C)C(OC3CC(OC)C(OC4CC(OC)C(=CCO)C(C)O4)C(C)O3)C(C)C=CC=C3COC4C(O)C(C)=CC(C(=O)O1)C34O)O2 (stereo not drawn) [Compound 4] | 0.01 µg/mL | 0.01 µg/mL | 42% | 100%
CCC(C)C1OC2(C=CC1C)CC1CC(CC=C(C)C(OC3CC(OC)C(OC4CC(OC)C(=CC=NOC)C(C)O4)C(C)O3)C(C)C=CC=C3COC4C(O)C(C)=CC(C(=O)O1)C34O)O2 (single isomer, unassigned) [Compound 13] | 0.01 µg/mL | 0.002 µg/mL |  | 
CCC(C)C1OC2(C=CC1C)CC1CC(CC=C(C)C(OC3CC(OC)C(OC4CC(OC)C(=CC(=O)O)C(C)O4)C(C)O3)C(C)C=CC=C3COC4C(O)C(C)=CC(C(=O)O1)C34O)O2 (stereo not drawn) [Compound 25] | 0.05 µg/mL | 0.01 µg/mL | 69% | 100%
CCC(C)C1OC2(C=CC1C)CC1CC(CC=C(C)C(OC3CC(OC)C(OC4CC(OC)C(=CC=NO)C(C)O4)C(C)O3)C(C)C=CC=C3COC4C(O)C(C)=CC(C(=O)O1)C34O)O2 (single isomer, unassigned) [Compound 9] | 0.01 µg/mL | 0.002 µg/mL |  | 
CCC(C)C1OC2(CC(=O)C1C)CC1CC(CC=C(C)C(OC3CC(OC)C(OC4CC(OC)C(=CC(=O)OC)C(C)O4)C(C)O3)C(C)C=CC=C3COC4C(O)C(C)=CC(C(=O)O1)C34O)O2 (stereo not drawn) [Compound 41] | 0.01 µg/mL | 0.01 µg/mL |  | 
CCC(C)C1OC2(C=CC1C)CC1CC(CC=C(C)C(OC3CC(OC)C(OC4CC(OC)C(=CCNC)C(C)O4)C(C)O3)C(C)C=CC=C3COC4C(O)C(C)=CC(C(=O)O1)C34O)O2 (stereo not drawn) [Compound 11] | 0.05 µg/mL | 0.01 µg/mL |  | 
CCC(C)C1OC2(C=CC1C)CC1CC(CC=C(C)C(OC3CC(OC)C(OC4CC(OC)C(=CCOC(=O)c5ccc(Cl)nc5)C(C)O4)C(C)O3)C(C)C=CC=C3COC4C(O)C(C)=CC(C(=O)O1)C34O)O2 (stereo not drawn) [Compound 34] | 0.002 µg/mL | 0.002 µg/mL |  | 
CCC(C)C1OC2(C=CC1C)CC1CC(CC=C(C)C(OC3CC(OC)C(OC4CC(OC)C(=CCO)C(C)O4)C(C)O3)C(C)C=CC=C3COC4C(O[Si](C)(C)C(C)(C)C)C(C)=CC(C(=O)O1)C34O)O2 (stereo not drawn) [Compound 3] | 100 µg/mL | 20 µg/mL |  | 
CCC(C)C1OC2(C=CC1C)CC1CC(CC=C(C)C(OC3CC(OC)C(OC4CC(OC)C(=CCOC(=O)c5ccncc5)C(C)O4)C(C)O3)C(C)C=CC=C3COC4C(O[Si](C)(C)C(C)(C)C)C(C)=CC(C(=O)O1)C34O)O2 (stereo not drawn) [Compound 17] | 100 µg/mL | 100 µg/mL |  | 
CCC(C)C1OC2(C=CC1C)CC1CC(CC=C(C)C(OC3CC(OC)C(OC4CC(OC)C(=CC=O)C(C)O4)C(C)O3)C(C)C=CC=C3COC4C(O)C(C)=CC(C(=O)O1)C34O)O2 (stereo not drawn) [Compound 8] | 0.01 µg/mL | 0.01 µg/mL |  | 
CCC(C)C1OC2(C=CC1C)CC1CC(CC=C(C)C(OC3CC(OC)C(OC4CC(OC)C(=CC=NO)C(C)O4)C(C)O3)C(C)C=CC=C3COC4C(O)C(C)=CC(C(=O)O1)C34O)O2 (single isomer, unassigned) [Compound 10] | 0.01 µg/mL | 0.002 µg/mL |  | 
C=CCOC(=O)C=C1C(C)OC(OC2C(C)OC(OC3C(C)=CCC4CC(CC5(C=CC(C)C(C(C)CC)O5)O4)OC(=O)C4C=C(C)C(O)C5OCC(=CC=CC3C)C45O)CC2OC)CC1OC (stereo not drawn) [Compound 20] | 0.01 µg/mL | 0.002 µg/mL |  | 
CCC(C)C1OC2(C=CC1C)CC1CC(CC=C(C)C(OC3CC(OC)C(OC4CC(OC)C(=CCN)C(C)O4)C(C)O3)C(C)C=CC=C3COC4C(O[Si](C)(C)C(C)(C)C)C(C)=CC(C(=O)O1)C34O)O2 (stereo not drawn) [Compound 14] | 100 µg/mL | 5 µg/mL |  | 
CCC(C)C1OC2(C=CC1C)CC1CC(CC=C(C)C(OC3CC(OC)C(OC4CC(OC)C(=CC=O)C(C)O4)C(C)O3)C(C)C=CC=C3COC4C(O[Si](C)(C)C(C)(C)C)C(C)=CC(C(=O)O1)C34O)O2 (stereo not drawn) [Compound 5] | 100 µg/mL | 100 µg/mL |  | 
CCC(C)C1OC2(C=CC1C)CC1CC(CC=C(C)C(OC3CC(OC)C(OC4CC(OC)C(=CCOC(=O)C5CCCN5C(=O)OC(C)(C)C)C(C)O4)C(C)O3)C(C)C=CC=C3COC4C(O)C(C)=CC(C(=O)O1)C34O)O2 (stereo not drawn) [Compound 30] | 0.05 µg/mL | 0.01 µg/mL |  | 
CCOC(=O)C=C1C(C)OC(OC2C(C)OC(OC3C(C)=CCC4CC(CC5(C=CC(C)C(C(C)CC)O5)O4)OC(=O)C4C=C(C)C(O[Si](C)(C)C(C)(C)C)C5OCC(=CC=CC3C)C45O)CC2OC)CC1OC (stereo not drawn) [Compound 1] | 100 µg/mL | 100 µg/mL |  | 
CCC(C)C1OC2(C=CC1C)CC1CC(CC=C(C)C(OC3CC(OC)C(OC4CC(OC)C(=CC=NOC)C(C)O4)C(C)O3)C(C)C=CC=C3COC4C(O)C(C)=CC(C(=O)O1)C34O)O2 (single isomer, unassigned) [Compound 12] | 0.01 µg/mL | 0.01 µg/mL |  | 
CCC(C)C1OC2(C=CC1C)CC1CC(CC=C(C)C(OC3CC(OC)C(OC4CC(OC)C(=CC=NNC(N)=O)C(C)O4)C(C)O3)C(C)C=CC=C3COC4C(O)C(C)=CC(C(=O)O1)C34O)O2 (stereo not drawn) [Compound 22] | 0.01 µg/mL | 0.0005 µg/mL |  | 
CCC(C)C1OC2(C=CC1C)CC1CC(CC=C(C)C(OC3CC(OC)C(OC4CC(OC)C(=CC(=O)OC)C(C)O4)C(C)O3)C(C)C=CC=C3COC4C(O[Si](C)(C)C(C)(C)C)C(C)=CC(C(=O)O1)C34O)O2 (stereo not drawn) [Compound 6] | >100 µg/mL | ≧100 μg/ml |  | 
